Data reported in article PMC11013010, “Serendipitous Identification of Azine Anticancer Agents Using a Privileged Scaffold Morphing Strategy” (Molecules, 2024).

Key:
Huh7 cells = assay: Cytotoxicity assay (CellTiter Glo) on hepatocarcinoma cells; format: cell-based; conditions: for TSI Huh7: ratio CC50 FB789 / CC50 Huh7
Experimental: (§1) Cell-based assays were carried out on the normal human fibroblast FB789 cell line (kindly provided by Elena Dell’Ambra from IRCCS Istituto Dermopatico dell’Immacolata, Rome), on the Huh7 hepatocarcinoma cell line (kindly provided by Istituto Toscano Tumori, Core Research Laboratory, Siena, Italy), on the Caco-2 adenocarcinoma colorectal cell line (ATCC catalog. n. HTB-37), on the suspension H9 cell line (repository code ARP0001, NIBSC Centre for AIDS reagents) and on the adherent TZM-bl cell line (repository code ARP5011, NIBSC Centre for AIDS reagents).
(§2) High glucose Dulbecco’s Modified Eagle Medium with sodium pyruvate and L-glutamine (DMEM; Euroclone) was used to grow Huh-7 and TZM-bl. Minimum Essential Eagle Medium (EMEM; Euroclone) was used to propagate Caco-2. DMEM and EMEM were supplemented with 10% fetal bovine serum (FBS; Euroclone) and 1% penicillin/streptomycin (Pen/Strep, Euroclone). The growth medium with a lower concentration of FBS (1%) was used for viral propagation, cytotoxic and antiviral experiments in adherent cell lines. […] All cell lines were grown at 37 °C in a 5% CO2 atmosphere in a humidified incubator.
(§3) The cytotoxicity of all investigated compounds was assayed in all cells lines as previously described. Briefly, confluent cells were treated with decreasing compound concentrations for 48h. The final DMSO concentration used was never greater than 0.5% v/v. Each experiment was performed in duplicate and repeated in two independent experiments. Cell viability was calculated using the CellTiter Glo 2.0 kit (Promega, Madison, WI, USA) and luminescence values signal obtained from cells treated with serial dilution of the compounds were measured through the GloMax® Discover Multi mode Microplate Reader (Promega) and elaborated with GraphPad PRISM software version 9.0 (La Jolla, San Diego, CA, USA). […] A non-toxic dose of each compound was used as the starting concentration in the antiviral activity assay.

[1] = as above; format: cell-based; conditions: human, Huh7 hepatocarcinoma cells, Huh7 hepatocarcinoma
Experimental: as §1, §2, §3

[2] = Cytotoxicity assay (CellTiter Glo) on colon epithelial carcinoma cells; conditions: human, Caco-2
Caco-2 cells = assay: as above; conditions: for TSI Caco-2: ratio CC50 FB789 / CC50 Caco-2
[3] = Cytotoxicity assay (CellTiter Glo) on normal fibroblasts; format: cell-based, human; conditions: human, FB789 normal fibroblast cells
Experimental: as §1
The FB789 was cultured in Dulbecco’s Modified Eagle Medium (DMEM) and Ham’s F10 in a ratio of 50%, supplemented with 10% FBS, 2 mM L-glutamine, and 10,000 unit/mL penicillin/streptomycin.
as §3

H9 cells = assay: Cytotoxicity assay (CellTiter Glo) on lymphoma cells; conditions: ratio CC50 FB789 / CC50 H9
[4] = as above; conditions: human
[5] = Parallel artificial membrane permeability assay (PAMPA); format: in vitro ADME; conditions: GI, pH 7.4, 5 h, RT
Experimental: To evaluate the apparent permeability of tested compounds, a DMSO stock solution [1 mM] of each derivative was prepared and then diluted 1:1 v/v with phosphate buffer (PBS 25 mM, pH 7.4) in order to make the donor solutions. According to the protocol already published, the gastrointestinal (GI) phospholipidic bilayer was mimed through adding a 1% w/v dodecane solution of phosphatidylcholine (PC). The sandwich plates were assembled and incubated for 5 h at RT. At the end time point, the amount of compound passed through the phospholipid bilayer was measured using HPLC-UV/MS. Finally, apparent permeability (Papp) and membrane retention (MR%) were calculated as previously described.

[6] = Kinetic aqueous solubility; format: physicochemical; conditions: Milli-Q water, 25 °C, water, kinetic from dmso stock; Mill-Q H2O, 3 h, RT; LOD 0.1 µg/mL
Experimental: For the quantitative analysis, a UV/LC-MS system was used. LC analysis was performed through an Agilent 1260 Infinity HPLC-DAD system (Agilent Technologies, Palo Alto, CA, USA), which constituted of a vacuum solvent degassing unit, a binary high-pressure gradient pump, and a UV detector, that was connected to an Agilent MSD 6130 system (Agilent Technologies, Palo Alto, CA, USA). The Agilent 1260 series mass spectra detection (MSD) single-quadrupole instrument was equipped with the orthogonal spray API-ES (Agilent Technologies, Palo Alto, CA, USA). Nitrogen was used as a nebulizing and drying gas. Chromatographic separation was performed using a Phenomenex Kinetex EVO C18-100 Å (150 × 4.6 mm, 5 μm particle size) at 25 °C and a gradient elution with a binary solution; eluent A was H2O, while eluent B consisted of ACN (both eluents were acidified with FA 0.1% v/v). […] UV detection was monitored at 254 nm. Spectra were acquired over the scan range m/z 100–1500 in positive mode.
DMSO-stock compounds’ solutions were diluted with Mill-Q H2O to a final concentration of 200 μM. The percentage of DMSO never exceeded 2% v/v. Samples were incubated under gentle shaking at 25 °C (RT) conditions for 3 h. The suspensions were filtered using a 0.45 µm nylon filter (Acrodisc, VWR, Radnor, PE, USA), and the amount of solubilized compound was determined with the HPLC-UV-MS method reported above. The quantification of the solubilized compound was made with the appropriate calibration curve realized with stock solutions in DMSO (0.1–100 µg/mL). The limit of detection (LOD) was quantified at 0.1 µg/mL.

Plasma stability assay = format: in vitro ADME; conditions: human plasma, 24 h, 37 °C; % of Time 0
Experimental: A DMSO solution of each compound was incubated at a final concentration of 100 µM at 37 °C under shaking with HEPES buffer (25 mM, 140 mM NaCl, pH 7.4) and human plasma. At time 0 and after 24 h, samples were collected from the reaction mixtures and treated with cold ACN. After centrifugation at 5000 rpm for 10 min, the supernatant was collected, and the amount of unmodified compound was determined using the HLPC-UV/MS method described above. Modified compounds were calculated using time zero as 100% of the unmodified compound.

[7] = Metabolic stability assay with human liver microsomes; format: in vitro ADME; conditions: 1 h, 37 °C, 50 µM
Experimental: A DMSO solution of selected compounds was incubated in the presence of phosphate buffer (25 mM, pH 7.4), human liver microsomal protein (200 µg/mL), and an NADPH regenerating system in MgCl2 (48 mM) at a final concentration of 50 µM. The metabolic reactions were conducted for 1 h under shaking at 37 °C and then stopped by adding cold acetonitrile (ACN). Centrifuging the mixtures at 5000 rpm, the supernatant was separated, dried under nitrogen flow, and finally suspended in methanol (MeOH). The amount of the parent drug and the metabolites were determined as previously described.

[8] = triazines 1-9, read-out 48 h, Cell-Titer Glo
[9] = pyrimidines and pyridines, read out at 48 h, mean ± SD
[10] = 21a vs triazine 4, 33b vs triazine 6

Row | SMILES | TSI Huh7 (Huh7 cells; triazines 1-9) | CC50 at 48 h ([1]; triazines 1-9, read-out 48 h) [µM] | CC50 at 48 h [2] [µM] | TSI Caco-2 (Caco-2 cells; triazines 1-9) | CC50 at 48 h [3, 8] [µM] | TSI H9 (H9 cells; triazines 1-9) | CC50 at 48 h [4] [µM] | TSI Huh7 (Huh7 cells; pyrimidines and pyridines) | CC50 at 48 h [1, 9] [µM] | TSI Caco-2 (Caco-2 cells; pyrimidines and pyridines) | CC50 at 48 h [3, 9] [µM] | TSI H9 (H9 cells; pyrimidines and pyridines) | fold higher TSI than reference triazine, Huh7 (Huh7 cells; [10]) [fold] | MR (membrane retention) [5] [%] | Papp at 5 h, 0.5 mM [5] [×10⁻⁶ cm/s] | solubility kinetic at 3 h [6] [µg/mL] | Plasmatic Stability (Plasma stability assay) [%] | fold higher TSI than reference triazine, Caco-2 (Caco-2 cells; [10]) [fold] | Metabolic Stability [7] [%]
1 | Cc1cccc(/C=N/Nc2nc(N3CCOCC3)nc(N3CCOCC3)n2)c1 [Compound 3] | 5.6 | 45 ± 10 | 184 ± 11 | 1.4 | 250 ± 10 | 3.4 | 74 ± 6.2 | – | – | – | – | – | – | – | – | – | – | – | –
2 | Oc1ccccc1/C=N/Nc1cc(Nc2ccc(F)cc2)nc(Nc2ccc(F)cc2)c1 [Compound 33a] | – | – | 12 ± 4 | – | – | – | 43 ± 9 | 0.02 | 18 ± 5 | 0.03 | 0.3 ± 0.3 | 0.01 | – | – | – | – | – | – | –
3 | CC(=O)Nc1ccc(/C=N/Nc2nc(Nc3ccc(F)cc3)nc(N3CCOCC3)n2)cc1 [Compound 5] | 0.6 | 45 ± 6 | 70 ± 6 | 0.4 | 27 ± 3 | 0.9 | 30 ± 5 | – | – | – | – | – | – | – | – | – | – | – | –
4 | Oc1ccccc1/C=N/Nc1cc(Nc2ccc(F)cc2)nc(N2CCOCC2)n1 [Compound 21a] | – | – | 2 ± 0.4 | – | – | – | 11 ± 2 | 3.3 | 3 ± 1 | 5.0 | 10 ± 5 | no selectivity | 2.8 | 26.03 ± 6.17 | 4.8 ± 0.73 | < 0.1 | 96.93 ± 2.73 | 1.4 | >99.9
5 | CC(=O)Nc1ccc(/C=N/Nc2nc(Nc3ccc(F)cc3)nc(Nc3ccc(F)cc3)n2)cc1 [Compound 8] | <0.3 | > 200 | > 200 | <0.3 | 57 ± 7 | <0.6 | > 100 | – | – | – | – | – | – | – | – | – | – | – | –
6 | Oc1ccccc1/C=N/Nc1cc(N2CCOCC2)nc(N2CCOCC2)n1 [Compound 14a] | – | – | 84 ± 7 | – | – | – | > 100 | – | 82 ± 6 | – | 30 ± 6 | – | – | – | – | – | – | – | –
7 | Cc1cccc(/C=N/Nc2cc(N3CCOCC3)nc(N3CCOCC3)n2)c1 [Compound 14b] | – | – | 11 ± 2 | – | – | – | 14 ± 7 | – | 8 ± 4 | 0.8 | 9 ± 1 | – | – | – | – | – | – | – | –
8 | Cc1cccc(/C=N/Nc2cc(Nc3ccc(F)cc3)nc(N3CCOCC3)n2)c1 [Compound 21b] | – | – | 113 ± 4 | – | – | – | > 100 | – | 67 ± 23 | 0.8 | 95 ± 1 | <1.0 | – | – | – | – | – | – | –
